Reference: patent US20200317660A1, “Quinazolinone Compound and Application Thereof” (LUOXIN PHARMACEUTICAL (SHANGHAI) CO., LTD., priority 2017, published 2020)
Read-outs that look alike come from different tables or passages of the source.

Experiments:
[1] = molecular target: T1, PI3Kα (Homo sapiens, UniProt P42336); experiment: In vitro test of enzyme activity (ADP-Glo lipokinase), PI3K alpha; format: biochemical; conditions: 40 μM ATP, 50 μM PIP2:3PS, 120 min
T1 construct: purchased Millipore 14-602-K
T1 sequence (P42336 whole entry): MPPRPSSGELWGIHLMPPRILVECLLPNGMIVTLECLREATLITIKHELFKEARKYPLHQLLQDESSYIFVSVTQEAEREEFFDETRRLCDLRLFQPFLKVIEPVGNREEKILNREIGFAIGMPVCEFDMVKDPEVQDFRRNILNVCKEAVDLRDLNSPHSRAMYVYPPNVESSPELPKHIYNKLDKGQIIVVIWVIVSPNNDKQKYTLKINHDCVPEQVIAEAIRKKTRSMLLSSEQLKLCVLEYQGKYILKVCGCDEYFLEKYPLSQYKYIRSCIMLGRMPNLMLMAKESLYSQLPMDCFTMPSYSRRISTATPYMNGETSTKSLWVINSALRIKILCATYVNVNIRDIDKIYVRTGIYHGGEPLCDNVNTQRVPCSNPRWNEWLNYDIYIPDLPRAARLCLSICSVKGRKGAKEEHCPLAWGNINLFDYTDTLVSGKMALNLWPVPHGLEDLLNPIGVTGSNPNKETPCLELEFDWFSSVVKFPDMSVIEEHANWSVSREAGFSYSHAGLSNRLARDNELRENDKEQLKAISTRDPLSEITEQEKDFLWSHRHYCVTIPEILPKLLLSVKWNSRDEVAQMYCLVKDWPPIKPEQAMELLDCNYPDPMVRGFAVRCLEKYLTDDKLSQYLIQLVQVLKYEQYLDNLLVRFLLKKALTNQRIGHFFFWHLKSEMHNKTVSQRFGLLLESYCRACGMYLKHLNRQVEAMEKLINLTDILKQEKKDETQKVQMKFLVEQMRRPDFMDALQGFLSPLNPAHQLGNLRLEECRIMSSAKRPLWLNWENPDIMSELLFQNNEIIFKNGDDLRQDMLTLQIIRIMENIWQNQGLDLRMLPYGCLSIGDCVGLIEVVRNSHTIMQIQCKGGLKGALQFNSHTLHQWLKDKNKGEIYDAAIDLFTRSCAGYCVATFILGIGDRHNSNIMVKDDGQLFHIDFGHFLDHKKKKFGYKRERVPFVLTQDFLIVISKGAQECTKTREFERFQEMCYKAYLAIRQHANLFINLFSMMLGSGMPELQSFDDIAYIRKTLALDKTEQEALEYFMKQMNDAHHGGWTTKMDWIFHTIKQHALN
T1 sequence (P27986 whole entry partner): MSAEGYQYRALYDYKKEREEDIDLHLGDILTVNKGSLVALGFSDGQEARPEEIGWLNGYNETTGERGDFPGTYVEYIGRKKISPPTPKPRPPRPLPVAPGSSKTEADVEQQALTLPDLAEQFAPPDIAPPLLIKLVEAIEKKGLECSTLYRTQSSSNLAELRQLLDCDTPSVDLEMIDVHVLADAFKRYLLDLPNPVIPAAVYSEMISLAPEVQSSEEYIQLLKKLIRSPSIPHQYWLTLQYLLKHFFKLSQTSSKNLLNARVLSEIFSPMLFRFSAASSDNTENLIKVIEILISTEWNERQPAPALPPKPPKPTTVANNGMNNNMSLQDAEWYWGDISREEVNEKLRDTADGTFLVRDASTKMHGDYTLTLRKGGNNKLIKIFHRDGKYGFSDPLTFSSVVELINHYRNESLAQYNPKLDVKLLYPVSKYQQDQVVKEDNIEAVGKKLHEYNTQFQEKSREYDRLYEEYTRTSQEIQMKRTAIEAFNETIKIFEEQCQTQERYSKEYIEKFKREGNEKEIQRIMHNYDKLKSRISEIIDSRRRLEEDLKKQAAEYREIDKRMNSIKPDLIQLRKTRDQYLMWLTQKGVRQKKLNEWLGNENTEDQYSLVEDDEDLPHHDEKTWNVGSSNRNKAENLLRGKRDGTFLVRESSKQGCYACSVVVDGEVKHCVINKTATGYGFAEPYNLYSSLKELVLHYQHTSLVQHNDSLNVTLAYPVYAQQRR

[2] = molecular target: T2, PI3Kβ (Homo sapiens, UniProt P42338); experiment: In vitro test of enzyme activity (ADP-Glo lipokinase), PI3K beta; format: biochemical; conditions: 40 μM ATP, 50 μM PIP2:3PS, 120 min
T2 construct: purchased Promega V1751
T2 sequence (P42338 whole entry): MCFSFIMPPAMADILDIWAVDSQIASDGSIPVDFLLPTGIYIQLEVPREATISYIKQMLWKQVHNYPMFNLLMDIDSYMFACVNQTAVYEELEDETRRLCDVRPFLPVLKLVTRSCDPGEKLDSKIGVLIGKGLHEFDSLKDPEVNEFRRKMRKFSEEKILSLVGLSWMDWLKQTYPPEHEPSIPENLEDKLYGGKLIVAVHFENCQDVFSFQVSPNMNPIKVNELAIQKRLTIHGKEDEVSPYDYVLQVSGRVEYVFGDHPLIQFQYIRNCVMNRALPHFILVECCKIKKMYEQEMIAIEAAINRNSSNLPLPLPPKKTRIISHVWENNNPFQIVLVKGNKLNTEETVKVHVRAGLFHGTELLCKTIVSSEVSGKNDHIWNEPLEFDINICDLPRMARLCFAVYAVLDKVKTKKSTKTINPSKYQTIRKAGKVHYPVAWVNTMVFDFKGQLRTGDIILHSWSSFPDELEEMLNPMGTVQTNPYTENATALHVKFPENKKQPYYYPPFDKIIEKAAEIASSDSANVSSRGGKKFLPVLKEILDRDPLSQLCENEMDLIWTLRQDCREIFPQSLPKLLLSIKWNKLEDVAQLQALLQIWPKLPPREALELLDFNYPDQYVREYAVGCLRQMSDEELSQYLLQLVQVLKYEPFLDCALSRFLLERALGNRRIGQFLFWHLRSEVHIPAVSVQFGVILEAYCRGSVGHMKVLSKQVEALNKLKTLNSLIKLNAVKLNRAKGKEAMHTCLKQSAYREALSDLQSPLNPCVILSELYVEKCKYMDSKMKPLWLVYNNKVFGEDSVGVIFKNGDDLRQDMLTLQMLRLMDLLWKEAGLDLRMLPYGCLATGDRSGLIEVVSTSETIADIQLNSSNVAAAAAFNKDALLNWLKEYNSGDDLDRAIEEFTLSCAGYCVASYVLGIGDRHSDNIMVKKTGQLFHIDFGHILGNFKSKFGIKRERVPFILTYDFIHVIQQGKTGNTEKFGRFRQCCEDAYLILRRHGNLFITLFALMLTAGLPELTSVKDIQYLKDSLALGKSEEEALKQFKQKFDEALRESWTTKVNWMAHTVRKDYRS
T2 sequence (P27986 whole entry partner): as the sequence (P27986 whole entry partner) above

[3] = molecular target: T3, PI3Kδ (Homo sapiens, UniProt O00329); experiment: In vitro test of enzyme activity (ADP-Glo lipokinase), PI3K delta; format: biochemical; conditions: 40 μM ATP, 50 μM PIP2:3PS, 120 min
T3 construct: purchased Millipore 14-604-K
T3 sequence (O00329 whole entry): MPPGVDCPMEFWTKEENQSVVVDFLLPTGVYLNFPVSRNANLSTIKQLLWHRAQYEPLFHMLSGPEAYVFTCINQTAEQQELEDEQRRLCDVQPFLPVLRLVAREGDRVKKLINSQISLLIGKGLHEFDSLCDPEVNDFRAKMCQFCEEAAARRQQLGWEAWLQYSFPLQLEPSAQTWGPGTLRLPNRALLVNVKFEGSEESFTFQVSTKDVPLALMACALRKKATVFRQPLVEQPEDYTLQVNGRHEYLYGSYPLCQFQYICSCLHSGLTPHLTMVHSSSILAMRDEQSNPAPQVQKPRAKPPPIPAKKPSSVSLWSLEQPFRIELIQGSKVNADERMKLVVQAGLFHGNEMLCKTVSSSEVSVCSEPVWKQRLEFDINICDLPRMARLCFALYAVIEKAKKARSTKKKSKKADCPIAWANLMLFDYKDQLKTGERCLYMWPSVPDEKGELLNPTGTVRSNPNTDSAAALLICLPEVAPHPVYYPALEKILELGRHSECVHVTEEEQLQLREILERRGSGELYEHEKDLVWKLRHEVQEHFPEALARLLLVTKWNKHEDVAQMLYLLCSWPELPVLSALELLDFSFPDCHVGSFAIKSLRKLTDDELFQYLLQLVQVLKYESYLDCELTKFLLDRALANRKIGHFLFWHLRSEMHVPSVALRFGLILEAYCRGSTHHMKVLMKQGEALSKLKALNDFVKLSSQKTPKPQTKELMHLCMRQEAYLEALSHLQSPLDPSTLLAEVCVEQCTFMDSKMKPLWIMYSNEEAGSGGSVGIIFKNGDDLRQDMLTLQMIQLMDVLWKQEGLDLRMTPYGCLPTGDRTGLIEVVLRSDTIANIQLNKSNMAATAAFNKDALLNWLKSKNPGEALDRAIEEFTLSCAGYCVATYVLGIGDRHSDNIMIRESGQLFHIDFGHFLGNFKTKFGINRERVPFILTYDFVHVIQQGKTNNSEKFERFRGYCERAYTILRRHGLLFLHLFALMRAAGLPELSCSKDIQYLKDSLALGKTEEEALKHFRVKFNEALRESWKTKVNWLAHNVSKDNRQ
T3 sequence (P27986 whole entry partner): as the sequence (P27986 whole entry partner) above
Procedure: (§1) 1. In Vitro Test of Enzyme Activity
(§2) The lipokinase reaction was carried out under the conditions of a suitable substrate and ATP, followed by two steps to detect the kinase activity with the ADP-Glo™ kit. The first step was terminating the kinase reaction, wherein the remaining ATP was completely removed and only ADP was left; the second step was adding kinase detection reagents to convert ADP to ATP, accompanied by luciferin/luciferase reaction. Finally, the output value of fluorescence value was converted into kinase activity.
(§3) Experimental materials and equipments:
(§4) 2. Kit: ADP-Glo™ Lipokinase and PIP2:3PS Kit (Promega # V1792)
(§5) The kit contains: 1 mM PIP2:3PS, 10× lipid dilution buffer, 1 M magnesium chloride, 10 mM ATP, 10 mM ADP, ADP-Glo reagent, detection buffer and detection substrate.
(§6) 3. Reaction plate: OptiPlate-384, white and transparent (PerkinElmer #6007299).
(§7) 1. 10× reaction buffer: 500 mM HEPES, pH 7.5, 500 mM NaCl, 9 mM MgCl2; BSA: 10% stock solution, homemade.
(§8) 2. Final test system conditions: 1× reaction system: 50 mM HEPES, 50 mM NaCl, 3 mM MgCl2, 0.01% BSA (freshly prepared on the day of the experiment), 1% DMSO (v/v)+/−compound
(§9) 3. Reaction system: 3 μL mixture of the enzyme and the substrate (1:1)+2 μL ATP/MgCl2 mixture+5 μL ADP-Glo reagent+10 μL detection reagent.
(§10) The detailed experimental procedures are as follows:
(§11) 1. Compound dilution: 50 nL 100×compound/DMSO was transferred to the test well plate with Echo. • For PI3Kα, the compound was diluted three-fold from the highest concentration of 0.111 mM for a total of 10 concentrations. • For PI3Kβ/PI3Kδ/PI3Kγ, the compound was three-fold diluted from the highest concentration of 1.11 mM for a total of 10 concentrations.
(§12) (1) The compound to be tested was prepared and 50 nL of 100 plus compound solution or DMSO was added to the corresponding well plate.
(§13) (2) 3.33 plate reaction buffer was prepared.
(§14) (3) 3.33 solution PIP2:3PS was prepared, PIP2:3PS was thawed for at least 1 minute before use.
(§15) (4) 2.5 mM containing 5.25 mM MgCl2 was prepared.
(§16) (5) 3.33 PI3Kα/PI3Kβ/PI3Kδ/PI3Kγ solution was prepared.
(§17) (6) The lipokinase solution and the PIP2:3PS solution were mixed in a volume ratio of 1:1.
(§18) (7) 3.33: lipokinase buffer and PIP2:3PS solution were mixed in a volume ratio of 1:1.
(§19) (8) 3 μL of buffer solution and PIP2:3PS were added to the first and the second columns of the well plate.
(§20) (9) 3 μL of the mixed solution of the enzyme and PIP2:3PS was added to the wells except the first and the second columns, centrifuged for 10 seconds (1000 rpm) and incubated at 23° C. for 20 minutes.
(§21) (10) 2 μL […] was added and well was shaken.
(§22) (11) The well plate was covered and shaken for about 30 s, then the well plate was incubated at 23° C. for 2 hours.
(§23) (12) 5 μL of ADP-Glo reagent containing 10 mM MgCl2 was added.
(§24) (13) The well plate was centrifuged at 1000 rpm for 10 seconds, and the well plate was then covered, shaken for about 30 seconds, and incubated at 23° C. for 60 minutes.
(§25) (14) 10 μL kinase detection reagent was added.
(§26) (15) The well plate was centrifuged at 1000 rpm for 10 seconds, and then incubated at 23° C. for 60 minutes.
(§27) (16) The fluorescence value was measured on the Envision instrument.

[4] = molecular target: T4, PI3Kγ (Homo sapiens, UniProt P48736); experiment: In vitro test of enzyme activity (ADP-Glo lipokinase), PI3K gamma; format: biochemical; conditions: 25 μM ATP, 50 μM PIP2:3PS, 120 min
T4 construct: purchased Millipore 14-558-K
T4 sequence (P48736 whole entry): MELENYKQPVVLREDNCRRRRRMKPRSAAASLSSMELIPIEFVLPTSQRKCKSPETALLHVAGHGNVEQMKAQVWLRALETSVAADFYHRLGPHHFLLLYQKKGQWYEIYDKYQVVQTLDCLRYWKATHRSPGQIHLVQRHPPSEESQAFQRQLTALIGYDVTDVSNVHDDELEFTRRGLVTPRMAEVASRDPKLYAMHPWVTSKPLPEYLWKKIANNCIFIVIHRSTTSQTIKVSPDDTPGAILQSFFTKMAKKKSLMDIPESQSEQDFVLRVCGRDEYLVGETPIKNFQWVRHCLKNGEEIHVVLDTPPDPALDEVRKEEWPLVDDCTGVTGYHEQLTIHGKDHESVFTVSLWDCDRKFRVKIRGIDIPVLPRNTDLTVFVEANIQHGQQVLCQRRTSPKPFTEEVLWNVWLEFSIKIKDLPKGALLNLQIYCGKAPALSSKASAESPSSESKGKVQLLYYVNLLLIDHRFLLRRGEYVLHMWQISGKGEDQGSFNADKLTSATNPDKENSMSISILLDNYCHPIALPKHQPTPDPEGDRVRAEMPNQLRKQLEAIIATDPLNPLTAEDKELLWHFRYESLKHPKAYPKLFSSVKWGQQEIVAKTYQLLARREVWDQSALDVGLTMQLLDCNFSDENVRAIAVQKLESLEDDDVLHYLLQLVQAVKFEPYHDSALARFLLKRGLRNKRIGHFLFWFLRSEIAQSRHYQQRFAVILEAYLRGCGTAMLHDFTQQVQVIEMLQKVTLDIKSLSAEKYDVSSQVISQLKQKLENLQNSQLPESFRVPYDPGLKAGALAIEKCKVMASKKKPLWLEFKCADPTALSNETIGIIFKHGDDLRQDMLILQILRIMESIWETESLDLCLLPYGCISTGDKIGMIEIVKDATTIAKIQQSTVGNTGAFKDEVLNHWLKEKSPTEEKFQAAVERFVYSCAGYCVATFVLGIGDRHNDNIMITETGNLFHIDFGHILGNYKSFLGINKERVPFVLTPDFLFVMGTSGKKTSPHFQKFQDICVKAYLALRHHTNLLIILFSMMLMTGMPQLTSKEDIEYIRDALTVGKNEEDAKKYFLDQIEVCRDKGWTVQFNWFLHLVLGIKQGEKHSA
Procedure: as §1, §2, §3, §4, §5, §6, §7, §8, §9, §10, §11, §12, §13, §14, §15, §16, §17, §18, §19, §20, §21, §22, §23, §24, §25, §26, §27

[5] = system: phosphorylation of PI3K downstream protein Akt in MCF7 cells; experiment: In vitro test of cells activity: ELISA of Akt phosphorylation in MCF7 cells; format: cell-based; conditions: 2 h compound, insulin 10 μg/mL stimulation, pAkt ELISA, read-out: MCF7 Cell IC50
Procedure: 2. In vitro test of cells activity
By the method of ELISA, the inhibition level of the test compound on the phosphorylation of PI3K downstream protein Akt in the signaling pathway was determined in MCF7 cells line to reflect the cells activity of the compound.
Cell culture medium: complete cell culture medium (RPMI 1640+10% serum+1% L-glutamine+1% double antibody)
Serum-free medium (without serum, RPMI 1640+1% L-glutamine+1% double antibody)
The detailed procedures areas follows:
(1) MCF7 cells (ATCC® HTB-22™) were inoculated into a 96-well plate at 100 μL of cell complete medium per well (2.5*10^4 cells per well), and the cells were incubated at 37° C. and 5% CO2 for 24 hours.
(2) The complete cell culture medium was replaced with 100 μL of serum-free medium, and incubated for starvation overnight.
(3) The compound was prepared (The initial concentration of the compound is 1 mM, which was subjected to a three-fold dilution in 10 concentrations, and the compound of each concentration was then diluted 100-fold with serum-free medium). 25 μL of the diluted compound was added to the cells orifice plate.
(4) The cells were incubated at 37° C. and 5% CO2 for 2 hours.
(5) The cells in the well plate were stimulated with 10 μg/mL insulin (Sigma # I9278-5 mL), incubated for 30 minutes, and then centrifuged at 1000 rpm for 5 minutes at room temperature.
(6) 250 μL of 1× balanced salt solution (Invitrogen, #14065-056, 4° C., containing 1 mM/L Na3VO4) was added to each well to wash the cells once.
(7) 100 μL of lysis buffer (trimethylolaminomethane hydrochloride, Invitrogen, #15567-1000 ml) was added to each well, shaken at 4° C. for 60 minutes, and then centrifuged at 4000 rpm for 4 minutes.
(8) The following procedures were carried out according to the instructions of ELISA kit (TGR BioSciences # EKT002).

[6] = In vivo DMPK study in mice after a single administration; set-up: species or system female Balb/c mice; conditions: for Cmax / Oral DNAUC (area under the dose normalization curve): oral
Procedure: Experimental objective: female Balb/c mice were used as the test animals, and the blood concentration of the compound was determined and the pharmacokinetic behavior was evaluated after a single administration.
Experimental operation: 12 healthy adult female Balb/c mice were selected, 6 for intravenous injection group and 6 for oral administration group. The compound to be tested was mixed with an appropriate amount of intravenous injection group vehicle (10% HP-betaCD: 10% solutol=1:1, pH=8), vortex-mixed and sonicated to prepare a 1.0 mg/mL clear solution, followed by filtration for subsequent use; the vehicle in the oral group was 0.5% MC/0.2% Tw80. After the test compound and the vehicle were mixed, it was vortex-mixed and sonicated to prepare a 1.0 mg/mL homogeneous suspension for subsequent use. After an intravenous administration at a dose of 1 mg/kg or an oral administration at the dose of 2 mg/kg and 10 mg/kg, whole blood of the mice was collected for a certain period of time to prepare plasma. The drug concentration was analyzed by LC-MS/MS method, and Phoenix WinNonlin software was used (Pharsight, USA) to calculate the pharmacokinetic parameters.
Cmax: the highest concentration of the drug in the body; F %: oral bioavailability; Oral DNAUC: area under the dose normalization curve; Vd: apparent volume of distribution; Cl: clearance rate; T1/2: half-life.

[7] = system: PI3K; conditions: literature statement; cited from earlier work

| SMILES | IC50 [1] | IC50 [2] | IC50 [3] | IC50 [4] | IC50 [5] | Cmax ([6]; 2 mpk) | Oral DNAUC (area under the dose normalization curve) ([6]; 2 mpk) | Cmax ([6]; 10 mpk) | Oral DNAUC (area under the dose normalization curve) ([6]; 10 mpk) | Cl (clearance rate) ([6]; intravenous 1 mg/kg) | Intravenous injection T1/2 ([6]; intravenous 1 mg/kg) | Vd (apparent volume of distribution) ([6]; intravenous 1 mg/kg) | F % (oral bioavailability) ([6]; oral 10 mpk vs intravenous 1 mg/kg) | IC50 ([5]; Homo sapiens, MCF7, 2 h) | inhibitory effect on PI3K [7] |
| --- | --- | --- | --- | --- | --- | --- | --- | --- | --- | --- | --- | --- | --- | --- | --- |
| COc1ncc(-c2ccc3ncn(CC(C)C(=O)NCCF)c(=O)c3c2)cc1NS(=O)(=O)c1ccc(F)cc1Cl (single isomer, unassigned) [WX067] | 0.00247 µM | 0.399 µM | 0.0188 µM | 0.0183 µM | 0.0674 µM | 3.39 µM | 1047 nM · h/mpk | – | – | – | – | – | – | – | – |
| CNC(=O)C(C)Cn1cnc2ccc(-c3cnc(OC)c(NS(=O)(=O)c4ccc(F)cc4)c3)cc2c1=O (single isomer, unassigned) [WX087] | 0.00335 µM | 0.355 µM | 0.0307 µM | 0.0413 µM | 0.019 µM | – | – | 5 µM | 1372 nM · h/mpk | – | – | – | – | – | – |
| CNC(=O)C(C)Cn1cnc2ccc(-c3cnc(OC)c(NS(=O)(=O)c4cc(C(F)(F)F)cc(C(F)(F)F)c4)c3)cc2c1=O (single isomer, unassigned) [WX103] | 0.0208 µM | 2.28 µM | 0.403 µM | 0.36 µM | 0.0134 µM | – | – | 18.3 µM | 12262 nM · h/mpk | 1.29 mL/min/kg | 3.55 h | 0.324 L/kg | 58.4% | – | – |
| CNC(=O)C(C)Cn1cnc2ccc(-c3cnc(OC)c(NS(=O)(=O)c4ccc(F)cc4C)c3)cc2c1=O (single isomer, unassigned) [WX181] | 0.00706 µM | 0.72 µM | 0.0474 µM | 0.0483 µM | 0.00904 µM | – | – | 8.34 µM | 882.0 nM · h/mpk | – | – | – | – | – | – |
| CNC(=O)C(C)Cn1cnc2ccc(-c3cnc(OC)c(NS(=O)(=O)c4cc(Cl)ccc4Cl)c3)cc2c1=O (single isomer, unassigned) [WX183] | 0.00095 µM | 0.166 µM | 0.00634 µM | 0.00821 µM | 0.0514 µM | – | – | 25.9 µM | 4867 nM · h/mpk | – | – | – | – | – | – |
| CNC(=O)C(C)Cn1cnc2ccc(-c3cnc(OC)c(NS(=O)(=O)c4cc(C)ccc4Cl)c3)cc2c1=O (single isomer, unassigned) [WX214] | 0.00222 µM | 0.278 µM | 0.0188 µM | 0.0314 µM | 0.0172 µM | – | – | 8.41 µM | 734 nM · h/mpk | – | – | – | – | – | – |
| CNC(=O)C(C)Cn1cnc2ccc(-c3cnc(OC)c(NS(=O)(=O)c4cc(Cl)ccc4C)c3)cc2c1=O (single isomer, unassigned) [WX222] | 0.0018 µM | 0.361 µM | 0.0207 µM | 0.0297 µM | 0.0126 µM | – | – | 6.88 µM | 1300 nM · h/mpk | – | – | – | – | – | – |
| COc1ncc(-c2ccc3ncn(CCN(C)C)c(=O)c3c2)cc1NS(=O)(=O)c1ccc(F)cc1 [R011, reference compound] | 0.0745 µM | 0.168 µM | – | – | – | – | – | – | – | – | – | – | – | 0.23 µM | good inhibitory effect |
| CCN(CC)CCn1cnc2ccc(-c3cnc(OC)c(NS(=O)(=O)c4ccc(F)cc4F)c3)cc2c1=O [R012, reference compound] | 0.0139 µM | 0.0679 µM | – | – | – | – | – | – | – | – | – | – | – | > 1 µM | good inhibitory effect |
| CNC(=O)[C@@H](C)Cn1cnc2ccc(-c3cnc(OC)c(NS(=O)(=O)c4ccc(F)cc4C(F)(F)F)c3)cc2c1=O [WX194] | 0.00342 µM | 0.432 µM | 0.0164 µM | 0.017 µM | 0.0849 µM | – | – | – | – | – | – | – | – | – | – |
